The values below come from BindingDB's records for PubMed 36240545 (n/a, 2022).

For this experiment, the target named is T1, X-box-binding protein 1 (Homo sapiens, UniProt P17861).
T1 sequence (P17861 whole entry): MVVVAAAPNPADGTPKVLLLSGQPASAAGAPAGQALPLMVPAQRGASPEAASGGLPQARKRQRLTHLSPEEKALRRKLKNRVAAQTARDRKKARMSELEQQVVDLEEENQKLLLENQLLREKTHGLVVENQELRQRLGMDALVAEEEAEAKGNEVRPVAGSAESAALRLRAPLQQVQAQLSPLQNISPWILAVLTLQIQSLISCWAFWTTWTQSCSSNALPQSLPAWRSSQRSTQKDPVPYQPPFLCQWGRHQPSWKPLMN
As to the kind of experiment: Inhibition of thapsigargin-induced XBP1-luciferase activation in human HeLa cells incubated for 24 hrs by luciferase assay.

The IC50 is the concentration needed to halve the response being measured. In turn, `CO[C@H]1/C=C/C=C/C=C/C[C@H](OC(=O)[C@@H](C)NC(=O)C2CCCCC2)[C@H](C)[C@@H](O)/C(C)=C\CCC2=C(SC)C(=O)C=C(NC(=O)C1)C2=O` showed an IC50 of 67 µM.
